Source: US20230293539A1, “MLL1-WDR5 PROTEIN-PROTEIN INTERACTION INHIBITOR COMPOUNDS AND USES THEREOF” (HUYABIO International, LLC, priority 2022, published 2023)

Experiments:
[1] = Mouse PK (oral); assay type: in vivo, C57/B16 mice; details: for Cmax: plasma; for AUC(0-t) / half-life: C57/B16, plasma
Method: Mouse PK: Animals were dosed with a single intravenous bolus or oral gavage administration in naïve C57/B16 mice (Beijing Vital River Laboratory Animal Co., LTD). Blood samples were collected at the respective sampling time points. The quantification of compound concentrations in mouse or rat plasma was quantified using LC-MS/MS method. Plasma concentration versus time data was analyzed by non-compartmental mode approaches using the WinNonlin software program (version 6.3 or above, Pharsight). Pharmacokinetic parameters, including C0 (initial concentration after drug administration), […], Vdss (volume of distribution), Cmax (maximum peak concentration of the drug), Tmax (time required to reach Cmax) T1/2 (time required for drug concentration to decrease by 50% after administration), AUC0-last (area under the concentration-time curve from dosing time t=0 to the time of the last measured concentration), AUC0-inf (total drug exposure across time), MRT0-last (mean residence time from dosing time t=0 to the time of the last measured concentration), MRT0-inf f (mean residence time of total drug exposure), bioavailability (%) (the percentage (or the fraction F) of an administered drug dose that reaches the systemic circulation) for IV and PO groups were calculated. See Table 7 and FIGS. 6A, 6B, 6C and 6D.

[2] = biological target: WDR5 (Homo sapiens, UniProt P61964); experiment: WDR5 TR-FRET Assay; assay type: binding; details: 5 nM WDR5 protein, 10 nM peptide, read-out: IC50 (MLL1-WDR5 PPI inhibitory activity)
Method: WDR5 TR-FRET Assay Procedure: Stock compounds were transferred to the assay plate by Echo Liquid Handler. Reactions were performed in the assay buffer (1×PBS, 300 mM NaCl, 0.5 mM TCEP, 0.1% CHAPS) containing 5 nM WDR5 protein, 10 nM peptide (Ac-ARTEVHLRKS-[Ahx-Ahx][C]-Alexa Fluor 488-NH2) and 0.25 nM Tb-anti His antibody (Tb-Ab) in 384-well white plate (PerkinElmer) with a final volume of 20 μl. Compounds were incubated with WDR5 protein for 30 min at room temperature. Plates were covered, protected from light and incubated for 60 min. at room temperature after adding the peptide and Tb-Ab. EnVision Multimode Plate Reader (PerkinElmer) was used for the TR-FRET assay with excitation wavelength at 340 nm and emission wavelength at 495 and 520 nm. The ratio of the 520/495 nm wavelengths were used to assess the degree of the FRET signal. IC50 was calculated by fitting the inhibition data using XLfit software to sigmoidal dose-response model.

[3] = Liver S9 stability assay; assay type: in vitro ADME, human; details: for half-life at 1 μM / microsomal CLint at 1 μM: Human liver S9; for % Remaining after 60 min incubation: Human liver S9, 1 μM, 5 mM GSH, 37° C.
Method: (§1) Liver S9 stability assay: Test compounds (1 μM) and positive control were incubated with 5 mM GSH and liver S9 (1 mg protein/ml) from multiple species (including human, monkey, dog, rat and mouse) at 37° C. at 0, 10, 30, and 60 minutes in duplicate. After adding the stop solution, 100 μL of supernatant were analyzed by LC-MS/MS. The % remaining of test compound, T1/2 (min), and CLint (μL/min/mg) were calculated and were reported.

[4] = Compound formulation stability assay; assay type: physicochemical; details: 10 mg/mL in 10% DMSO/10% solutol HS 15/80% water, 2-8° C.
Method: Compound formulation stability assay: Test articles were formulated in 10% DMSO/10% solutol HS 15/80% water and stored at 4° C. Formulated compounds were analyzed by a HPLC-UV method for actual concentrations and % remaining on Day 1, 4 and 7 after formulation to determine the stability of the formulated test article. The HPLC system was equipped with Shimadzu LC-20 high-performance liquid chromatograph, SIL-20AC auto sampler, LC-20AB pump and SPD-M20A detector. A Waters XBridge C18 (4.6*100 mm) column was applied for the separation. […]

[5] = Liver S9 stability assay; assay type: in vitro ADME, dog; details: for half-life at 1 μM / microsomal CLint at 1 μM: Dog liver S9; for % Remaining after 60 min incubation: Dog liver S9, 1 μM, 5 mM GSH, 37° C.
Method: as §1

[6] = WBS (whole blood stability) assay; assay type: in vitro ADME; details: for % Remaining after 60 min incubation: 2 μM, 37° C.
Method: WBS (whole blood stability) assay: The blood samples were collected freshly from multiple species including human, monkey, dog, rat and mouse. 2 μM of test compound and positive control were incubated with the whole blood at 37° C. at 0, 10, 30, 60, and 120 minutes in duplicate. After adding the stop solution, 200 μL of supernatant were analyzed by LC-MS/MS. The % remaining of test compound and T1/2 (min) were calculated and reported.

[7] = Liver S9 stability assay; assay type: in vitro ADME, rat; details: for half-life at 1 μM / microsomal CLint at 1 μM: Rat liver S9; for % Remaining after 60 min incubation: Rat liver S9, 1 μM, 5 mM GSH, 37° C.
Method: as §1

[8] = system: MV 411 cells; experiment: Cell Viability Assay (CellTiter-Glo); assay type: cell-based; details: Homo sapiens, MV4-11, 72 hours, read-out: IC50 (anti-proliferative activity against leukemia cells)
Method: Cell lines and maintenance: All cell lines (MV 411) used for in vitro and in vivo studies were supplied as part of Wuxi AppTech cell bank. Cell lines were maintained in a medium supplemented with 10% heat inactivated fetal bovine serum at 37° C., in an atmosphere of 5% CO2, in air. The tumor cells were routinely subcultured twice weekly. The cells growing in an exponential growth phase were used for the in vitro cell potency and in vivo efficacy studies.
EXAMPLE 1: Cell Viability Assay: For cell cytotoxicity assays, 2000 cells/well were plated in 384-well plates. Twenty four hours after plating, cells were treated with inhibitors at the indicated compound concentrations. On Day 3 (72 hours), cells were lysed with CellTiter-Glo® Luminescent Cell Viability Assay reagent (Promega) and luminescence was read using the EnVision Multi-plate reader. To calculate IC50, a dose-response curve is generated using a nonlinear regression model with a sigmoidal dose response. The formula of surviving rate is shown below. IC50 values were automatically generated by GraphPad Prism 8.0. See FIG. 1A and FIG. 1B and Tables 3 and 4.

[9] = Liver S9 stability assay; assay type: in vitro ADME, mouse; details: for half-life at 1 μM / microsomal CLint at 1 μM: Mouse liver S9; for % Remaining after 60 min incubation: Mouse liver S9, 1 μM, 5 mM GSH, 37° C.
Method: as §1

[10] = Dog PK (oral); assay type: in vivo, Beagle dogs; details: for Cmax / AUC(0-t) / half-life: Beagle, plasma
Method: Dog PK: Fasted or fed non-naïve Beagle dogs (Marshall Bioresources, Beijing, China) were administered a single intravenous bolus or oral gavage administration of test compounds at respective doses. Blood samples for plasma isolation were collected from a peripheral vessel, from restrained, non-sedated animals at the respective sampling time points. The quantification of compound concentrations in dog plasma was quantified using LC-MS/MS method. Plasma concentration versus time data was analyzed by non-compartmental mode approaches using the WinNonlin software program (version 6.3 or above, Pharsight). Pharmacokinetic parameters, including C0, CL, Vdss, Cmax, Tmax T1/2, AUC0-last, AUC0-inf, MRT0-last, MRT0-inf, bioavailability (%) for IV and PO groups were calculated. See FIGS. 9A, […], 9C and FIGS. 10A, 10B, 10C, and 10D.

Which results are given for `C[C@H]1CN(c2cc(F)c(-c3cnc(N4CCOCC4)nc3)cc2Nc2ncnc(Cl)c2N)CCN1C` [DDO-2213_020, (S)-6-chloro-N4-(2-(3,4-dimethylpiperazin-1-yl)-4-fluoro-5-(2-morpholinopyrimidin-5-yl)phenyl)pyrimidine-4,5-diamine]?
F ([1]; 10 mpk): 61.5%; F ([1]; 30 mpk): 107.0%; Cmax ([1]; C57/B16, 10 mg/kg, 10 mpk): 1670 nM; Cmax ([1]; C57/B16, 30 mg/kg, 30 mpk): 5470 nM; AUC(0-t) ([1]; 10 mg/kg, 10 mpk): 7.1 µM·h; half-life ([1]; 10 mg/kg, 10 mpk): 3.3 h; AUC(0-t) ([1]; 30 mg/kg, 30 mpk): 37 µM·h; half-life ([1]; 30 mg/kg, 30 mpk): 2.7 h; IC50 [2]: 0.00766 µM; half-life at 1 μM [3]: > 2.42 h; microsomal CLint at 1 μM [3]: < 4.8 µL/min/mg; % Remaining after 60 min incubation [3]: 92.1%; Accuracy % (Day 0) [4]: 89.8%; Formulation Appearance (Day 0) [4]: clear solution; Remaining % (Day 0) [4]: 100%; Accuracy % (Day 1) [4]: 91.6%; Formulation Appearance (Day 1) [4]: clear solution; Remaining % (Day 1) [4]: 102%; Accuracy % (Day 4) [4]: 92.0%; Formulation Appearance (Day 4) [4]: clear solution; Remaining % (Day 4) [4]: 100%; Accuracy % (Day 7) [4]: 95.5%; Formulation Appearance (Day 7) [4]: clear solution; Remaining % (Day 7) [4]: 104%; half-life at 1 μM [5]: > 2.42 h; microsomal CLint at 1 μM [5]: < 4.8 µL/min/mg; % Remaining after 60 min incubation [5]: 78%; half-life at 2 μM ([6]; Dog whole blood): > 2.41 h; % Remaining after 60 min incubation ([6]; Dog whole blood): 101%; half-life at 2 μM ([6]; Human whole blood): 5 h; % Remaining after 60 min incubation ([6]; Human whole blood): 103%; half-life at 2 μM ([6]; Mouse whole blood): > 2.41 h; % Remaining after 60 min incubation ([6]; Mouse whole blood): 104%; half-life at 2 μM ([6]; Rat whole blood): > 2.41 h; % Remaining after 60 min incubation ([6]; Rat whole blood): 1%; half-life at 1 μM [7]: > 2.42 h; microsomal CLint at 1 μM [7]: < 4.8 µL/min/mg; % Remaining after 60 min incubation [7]: 88.8%; IC50 [8]: 5.81 µM; half-life at 1 μM [9]: > 2.42 h; microsomal CLint at 1 μM [9]: < 4.8 µL/min/mg; % Remaining after 60 min incubation [9]: 93.4%

What does the source list for `C[C@@H]1CN(c2ncc(-c3cc(Nc4ncnc(Cl)c4N)c(N4CCN(C)[C@@H](C)C4)cc3F)cn2)C[C@H](C)O1` [DDO-2213_023, 6-chloro-N4-(5-(2-((2S,6R)-2,6-dimethylmorpholino)pyrimidin-5-yl)-2-((S)-3,4-dimethylpiperazin-1-yl)-4-fluorophenyl)pyrimidine-4,5-diamine]?
F ([1]; 10 mpk): 82.5%; F ([1]; 30 mpk): 93.8%; Cmax ([1]; C57/B16, 10 mg/kg, 10 mpk): 1320 nM; Cmax ([1]; C57/B16, 30 mg/kg, 30 mpk): 3430 nM; AUC(0-t) ([1]; 10 mg/kg, 10 mpk): 16.4 µM·h; half-life ([1]; 10 mg/kg, 10 mpk): 11.1 h; AUC(0-t) ([1]; 30 mg/kg, 30 mpk): 56 µM·h; half-life ([1]; 30 mg/kg, 30 mpk): 13.3 h; half-life at 1 μM [3]: > 2.42 h; microsomal CLint at 1 μM [3]: < 4.8 µL/min/mg; % Remaining after 60 min incubation [3]: 81.8%; Accuracy % (Day 0) [4]: 89.9%; Formulation Appearance (Day 0) [4]: clear solution; Remaining % (Day 0) [4]: 100%; Accuracy % (Day 1) [4]: 81.3%; Formulation Appearance (Day 1) [4]: clear solution; Remaining % (Day 1) [4]: 90.4%; Accuracy % (Day 4) [4]: 92.2%; Formulation Appearance (Day 4) [4]: clear solution; Remaining % (Day 4) [4]: 100%; Accuracy % (Day 7) [4]: 91.5%; Formulation Appearance (Day 7) [4]: clear solution; Remaining % (Day 7) [4]: 99.1%; half-life at 1 μM [5]: > 2.42 h; microsomal CLint at 1 μM [5]: < 4.8 µL/min/mg; % Remaining after 60 min incubation [5]: 112%; half-life at 2 μM ([6]; Dog whole blood): > 2.41 h; % Remaining after 60 min incubation ([6]; Dog whole blood): 97.3%; half-life at 2 μM ([6]; Human whole blood): 8.75 h; % Remaining after 60 min incubation ([6]; Human whole blood): 103%; half-life at 2 μM ([6]; Mouse whole blood): > 2.41 h; % Remaining after 60 min incubation ([6]; Mouse whole blood): 103%; half-life at 2 μM ([6]; Rat whole blood): > 2.41 h; % Remaining after 60 min incubation ([6]; Rat whole blood): 103%; half-life at 1 μM [7]: > 2.42 h; microsomal CLint at 1 μM [7]: < 4.8 µL/min/mg; % Remaining after 60 min incubation [7]: 101%; F ([10]; 1.5 mpk): 105.0%; F ([10]; 4.5 mpk): 88.8%; Cmax ([10]; 1.5 mg/kg, 1.5 mpk): 188 nM; Cmax ([10]; 4.5 mg/kg, 4.5 mpk): 445 nM; AUC(0-t) ([10]; 1.5 mg/kg, 1.5 mpk): 5.28 µM·h; half-life ([10]; 1.5 mg/kg, 1.5 mpk): 63.6 h; AUC(0-t) ([10]; 4.5 mg/kg, 4.5 mpk): 13.4 µM·h; half-life ([10]; 4.5 mg/kg, 4.5 mpk): 48.2 h; IC50 [8]: 4.06 µM; half-life at 1 μM [9]: 2.1 h; microsomal CLint at 1 μM [9]: 5.5 µL/min/mg; % Remaining after 60 min incubation [9]: 71.5%
